From patent US20120231073A1, “DEXLANSOPRAZOLE COMPOSITIONS” (DR. REDDY'S LABORATORIES, INC., priority 2008, published 2012)

Experiments:
[1] = Particle size distribution using a Malvern instrument; type: physicochemical
Text: The D10, D50, and D90 values are useful ways for indicating a particle size distribution. D90 is the size value where at least 90 volume percent of the particles have a size smaller than the said value; Likewise D10 refers to 10 volume percent of the particles having a size smaller than the said value. D50 refers to at least 50 volume percent of the particles having a size smaller than the said value and D[4,3] value refers to the mean particle size. Methods for determining D10, D50 D90 and D[4,3] include laser light diffraction, such as using equipment sold by Malvern Instruments Ltd., Malvern, Worcestershire, United Kingdom. Other types of equipment may be used, as is known in the art.
The premixes of Example 1 and Example 2 are analyzed for particle size distribution using a Malvern instrument and the results are below: […]

[2] = Glass transition temperature (Tg) by differential scanning calorimetry; type: physicochemical
Protocol: The glass transition temperature (Tg) is determined for premixes using differential scanning calorimetry and the results are below:
The glass transition temperatures of the premix compositions are greater than that of dexlansoprazole (amorphous).

Cc1c(OCC(F)(F)F)ccnc1C[S@@+]([O-])c1nc2ccccc2[nH]1 [Amorphous dexlansoprazole, (+)-2-[(R)-{[3-methyl-4-(2,2,2-trifluoroethoxy)pyridin-2-yl]methyl}sulfinyl]-1H-benzimidazole]
D10 [1]: 9.061 μm | D50 [1]: 22.182 μm | D90 [1]: 42.598 μm | Tg (glass transition temperature) [2]: 55.48 °C
